Values belong to the molecule of their own block, whether it stands above or below them.
Key:
[1] = cited from earlier work
[2] = test system: dihydropyrimidine dehydrogenase (DPD); details: in vitro; background statement, no reference given; cited from earlier work
[3] = Plasma pharmacokinetics of 5-FU and FBAL after PVI of 5-FU and oral S-1 in patients; type: in vivo, human
Experimental: Infusion was carried out with the use of a battery-operated pump (STC-508, Terumo Co., Ltd., Tokyo, Japan) for five consecutive days. […] After a washout period of 9 days, patients received S-1 in two divided doses daily for 28 consecutive days. S-1 was administered orally within 1 h after breakfast and supper, at about 0900 and 1900 hours The daily dose of S-1 in terms of tegafur was 80 mg day^−1 in patients with a body surface area (BSA) of <1.25 m^2, 100 mg day^−1 in those with a BSA of ⩾1.25 m^2 to <1.5 m^2, and 120 mg day^−1 in those with a BSA of ⩾1.5 m^2.
On days 2–4, one blood sample was obtained at 0900 hours before the start of the next 24-h cycle. During oral administration of S-1, blood samples were taken on day 1 before the first dose of the day and at 1, 2, 4, 6, and 10 h. On days 2–4 of S-1 treatment, blood samples were taken before administration in the morning and at 4 and 10 h. On day 5, blood samples were obtained at 0, 2, 4, and 10 h. Peripheral blood samples (6 ml per sampling time) were collected in heparinised tubes and centrifuged at 1000 g for 15 min at 4°C. The plasma was stored at −20°C until analysis. Urine was collected from 0 to 24 h after the start of drug administration on day 1 of each treatment and refrigerated during the collection period.

[4] = target: T1, dihydropyrimidine dehydrogenase (DPD) (Homo sapiens, UniProt Q12882); assay: Plasma uracil concentration as surrogate marker of DPD inhibition (pharmacodynamic analysis); type: in vivo; details: for AUC of uracil: 10 patients, surrogate marker of DPD inhibition
T1 construct: from tissue; host or cells: patients in vivo (DPD mainly in the liver); plasma sampled
T1 sequence (Q12882 4-1025): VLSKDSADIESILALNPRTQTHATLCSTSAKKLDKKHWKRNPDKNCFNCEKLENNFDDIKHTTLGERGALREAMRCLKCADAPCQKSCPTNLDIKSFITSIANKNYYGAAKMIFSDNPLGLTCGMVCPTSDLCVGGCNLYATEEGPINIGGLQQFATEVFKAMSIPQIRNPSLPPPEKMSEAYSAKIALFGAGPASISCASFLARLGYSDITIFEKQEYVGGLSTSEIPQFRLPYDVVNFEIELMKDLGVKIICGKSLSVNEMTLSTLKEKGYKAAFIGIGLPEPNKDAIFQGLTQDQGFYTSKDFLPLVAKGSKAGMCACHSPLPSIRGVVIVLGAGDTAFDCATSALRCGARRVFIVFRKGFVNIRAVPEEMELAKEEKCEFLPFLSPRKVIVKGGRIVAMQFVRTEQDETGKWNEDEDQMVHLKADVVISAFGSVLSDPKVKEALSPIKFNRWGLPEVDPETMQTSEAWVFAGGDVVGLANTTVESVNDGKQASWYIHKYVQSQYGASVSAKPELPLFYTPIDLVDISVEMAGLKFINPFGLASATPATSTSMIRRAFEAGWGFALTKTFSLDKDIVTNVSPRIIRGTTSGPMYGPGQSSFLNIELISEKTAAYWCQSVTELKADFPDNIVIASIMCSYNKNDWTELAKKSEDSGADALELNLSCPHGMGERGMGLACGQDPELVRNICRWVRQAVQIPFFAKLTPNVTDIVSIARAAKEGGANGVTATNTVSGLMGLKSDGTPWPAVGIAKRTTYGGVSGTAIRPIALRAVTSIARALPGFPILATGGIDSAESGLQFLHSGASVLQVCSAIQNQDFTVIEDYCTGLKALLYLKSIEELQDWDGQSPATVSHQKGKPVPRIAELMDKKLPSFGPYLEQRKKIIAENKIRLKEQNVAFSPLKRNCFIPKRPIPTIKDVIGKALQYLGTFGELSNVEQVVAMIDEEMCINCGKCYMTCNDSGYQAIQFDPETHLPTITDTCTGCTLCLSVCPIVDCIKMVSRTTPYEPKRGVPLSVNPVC
Experimental: All 10 patients received 5-FU by PVI at a rate of 250 mg m^−2 day^−1 via a peripheral vein. Infusion was carried out with the use of a battery-operated pump (STC-508, Terumo Co., Ltd., Tokyo, Japan) for five consecutive days. The assigned daily dose of 5-FU was diluted in 500 ml of normal saline for infusion.
On days 1 and 5 of 5-FU PVI, blood samples were taken at 0 (before administration), 2, 6, and 10 h after the start of the infusion (0900 hours in all patients). On days 2–4, one blood sample was obtained at 0900 hours before the start of the next 24-h cycle. […] On day 5, blood samples were obtained at 0, 2, […], and 10 h. Peripheral blood samples (6 ml per sampling time) were collected in heparinised tubes and centrifuged at 1000 g for 15 min at 4°C. The plasma was stored at −20°C until analysis. Urine was collected from 0 to 24 h after the start of drug administration on day 1 of each treatment and refrigerated during the collection period.
Analysis of 5-FU and uracil was carried out as described by [Matsushima et al (1997)], with minor modification. 5-Fluorouracil and uracil were extracted with ethyl acetate after washing with dichloromethane and were subjected to a reaction to induce their trimethylsilyl derivatives. 5-Fluorouracil and uracil were analysed by electron impact ionisation gas-chromatography/mass-spectrometry (GC–MS). For analysis of 5-FU by GC–MS, stable isotopes were used as internal standards. The measurable ranges of plasma or urine levels were 1–400 ng ml^−1 for 5-FU and 5–2000 ng ml^−1 for uracil. For analysis of FBAL, plasma was deproteinised with ethanol and washed with dichloromethane. F-β-alanine was treated with 2,4-dinitrofluorobenzene to derive its dinitrophenyl ester, and the reaction product was extracted with dichloromethane under acidic conditions. The reaction product was separated by high-pressure liquid chromatography (LC) with a reversed-phase column, and LC/tandem-mass spectrometry was performed with the use of negative ion-electron spray ionisation. DL-norvaline was used as an internal standard. […]

[5] = patients given 5-FU by PVI, ref Lokich et al, 1989

SMILES: CCCCCOC(=O)Nc1nc(=O)n([C@@H]2O[C@H](C)[C@@H](O)[C@H]2O)cc1F [capecitabine]
incidence of grade 3 HFS ([1]; capecitabine, ref Van Cutsem et al, 2000, 2001, Hoff et al, 2001): 15–18%
incidence of HFS ([1]; capecitabine, ref Van Cutsem et al, 2000): 45%
incidence of cardiotoxicity ([1]; randomised phase II trial, metastatic colorectal cancer, five out of 108, ref Van Cutsem et al, 2000): 5%
incidence of paresthesia ([1]; randomised phase II trial, metastatic colorectal cancer, ref Van Cutsem et al, 2000): 12%

SMILES: Oc1cc(O)c(Cl)cn1 [CDHP, 5-chloro-2,4-dihydroxypyridine]
DPD-inhibitory activity relative to that of uracil [2]: 180 fold

time to steady state of plasma 5-FU concentration after the start of PVI ([3]; PVI of 5-FU): 2 h
AUC0–10 h of 5-FU ([3]; plasma, day 5 (abstract)): 728 ± 113 ng·h/mL
AUC of uracil ([4]; Day 1, 0 to 10 h): 200 ± 60 ng·h/mL
AUC of uracil ([4]; Day 5, 0 to 10 h): 252 ± 60 ng·h/mL
AUC0–10 h of uracil ([4]; day 5 (abstract)): 252 ± 60 ng·h/mL
SMILES: O=c1[nH]cc(F)c(=O)[nH]1 [5-FU, 5-fluorouracil]
dose-limiting toxicity (DLT) ([1]; 5-FU by PVI, ref Lokich et al, 1989): HFS
incidence of grade 3 leukopenia [1, 5]: 1%
incidence of hand–foot syndrome [1, 5]: about 23%
incidence of stomatitis [1, 5]: about 23%
